Results reported in patent US20120065066A1, “NOVEL HERBICIDES” (SYNGENTA CROP PROTECTION LLC, priority 2009, published 2012).

Tests used:
Assay type in all cases: in vivo
Details in all cases: 312 h, evaluated after 13 days, 100=total damage to plant, 0=no damage to plant
[1] = test system: Alopecurus myosuroides (ALOMY); experiment: Test Example B, post-emergence herbicidal test
Protocol: (§1) Seeds of a variety of test species were sown in standard soil in pots. After cultivation for one day (pre-emergence) or after 8 days cultivation (post-emergence) under controlled conditions in a glasshouse (at 24/16° C., day/night; 14 hours light; 65% humidity), the plants were sprayed with an aqueous spray solution derived from the formulation of the technical active ingredient in acetone/water (50:50) solution containing 0.5% Tween 20 (polyoxyethelyene sorbitan monolaurate, CAS RN 9005-64-5). The test plants were then grown in a glasshouse under controlled conditions in a glasshouse (at 24/16° C., day/night; 14 hours light; 65% humidity) and watered twice daily. After 13 days for pre and post-emergence, the test was evaluated (100=total damage to plant; 0=no damage to plant). Test Plants: Setaria faberi (SETFA), Alopecurus myosuroides (ALOMY), Echinochloa crus-galli (ECHCG), and Avena fatua (AVEFA).

[2] = test system: Echinochloa crus-galli (ECHCG); experiment: Test Example B, post-emergence herbicidal test
Protocol: as §1

Avena fatua (AVEFA) [3] = experiment: Test Example B, post-emergence herbicidal test
Protocol: as §1

[4] = test system: Alopecurus myosuroides (ALOMY); experiment: Test Example B, pre-emergence herbicidal test
Protocol: as §1

[5] = test system: Echinochloa crus-galli (ECHCG); experiment: Test Example B, pre-emergence herbicidal test
Protocol: as §1

Avena fatua (AVEFA) [6] = experiment: Test Example B, pre-emergence herbicidal test
Protocol: as §1

Compound	pest or weed control at 250 g/ha [1]	pest or weed control at 250 g/ha [2]	pest or weed control at 250 g/ha (Avena fatua (AVEFA) [3])	pest or weed control at 250 g/ha [4]	pest or weed control at 250 g/ha [5]	pest or weed control at 250 g/ha (Avena fatua (AVEFA) [6])
CCc1ccc(-c2ccc(Cl)c(C(F)(F)F)c2)cc1C1=C(O)[C@H]2[C@H]3CC[C@H](CC3)[C@H]2C1=O [Compound T16]	0%	30%	0%	60%	100%	20%
CCc1ccc(-c2ccc(Cl)c(F)c2Cl)cc1C1=C(O)[C@H]2[C@H]3CC[C@H](CC3)[C@H]2C1=O [Compound T43]	70%	100%	30%	0%	40%	20%
CCc1ccc(-c2c(F)cc(Cl)cc2F)cc1C1=C(O)[C@H]2[C@H]3CC[C@H](CC3)[C@H]2C1=O [Compound T20]	100%	100%	100%	100%	100%	100%
CCc1ccc(-c2ccc(Cl)c(F)c2F)cc1C1=C(O)[C@H]2[C@H]3CC[C@H](C3)[C@H]2C1=O [Compound T40]	90%	100%	90%	50%	100%	60%
CCc1ccc(-c2ccc(Cl)nc2Cl)cc1C1=C(O)[C@H]2[C@H]3CC[C@H](C3)[C@H]2C1=O [Compound T37]	70%	90%	0%	50%	90%	70%
CCc1ccc(-c2ccc(Cl)c(Cl)c2)cc1C1=C(O)[C@H]2[C@H]3CC[C@H](CC3)[C@H]2C1=O [Compound T13]	60%	100%	60%	20%	90%	0%
CCc1ccc(-c2ccc(Cl)cc2Cl)cc1C1=C(O)[C@H]2[C@H]3CC[C@H](C3)[C@H]2C1=O [Compound T29]	30%	100%	0%	30%	100%	90%
CCc1ccc(-c2ccc(Cl)c(F)c2F)cc1C1=C(O)[C@H]2[C@H]3CC[C@H](CC3)[C@H]2C1=O [Compound T44]	90%	100%	80%	0%	70%	20%
CCc1ccc(-c2c(F)cc(Cl)cc2Cl)cc1C1=C(O)[C@H]2[C@H]3CC[C@H](CC3)[C@H]2C1=O [Compound T42]	0%	80%	40%	0%	0%	0%
CCc1ccc(-c2ccc(Cl)cc2)cc1C1=C(O)[C@H]2[C@H]3CC[C@H](CC3)[C@H]2C1=O (racemic) [Compound T3, rac-(3aR,7aS)-2-(4′-chloro-4-ethylbiphenyl-3-yl)hexahydro-4,7-ethanoindene-1,3-dione]	100%	100%	90%	70%	100%	70%
CCc1ccc(-c2ccc(Cl)c(Cl)c2)cc1C1=C(O)[C@H]2[C@H]3CC[C@H](C3)[C@H]2C1=O [Compound T31]	60%	100%	70%	20%	80%	70%
Cc1ccc(-c2ccc(Cl)cc2)cc1C1=C(O)[C@H]2[C@H]3CC[C@H](CC3)[C@H]2C1=O [Compound T4]	70%	100%	80%	50%	100%	70%
CCc1ccc(-c2ccc(Cl)nc2)cc1C1=C(O)[C@H]2[C@H]3CC[C@H](C3)[C@H]2C1=O [Compound T36]	0%	50%	20%	30%	80%	40%
CCc1ccc(-c2ccc(Cl)c(OC)c2)cc1C1=C(O)[C@H]2[C@H]3CC[C@H](CC3)[C@H]2C1=O [Compound T14]	0%	90%	0%	80%	100%	70%
CCc1ccc(-c2ccc(Cl)c(F)c2)cc1C1=C(O)[C@H]2[C@H]3CC[C@H](CC3)[C@H]2C1=O [Compound T18]	100%	100%	100%	50%	90%	50%
CCc1ccc(-c2ccc(Cl)cc2F)cc1C1=C(O)[C@H]2[C@H]3CC[C@H](CC3)[C@H]2C1=O (racemic) [Compound T10, rac-(3aR,7aS)-2-(4′-chloro-4-ethyl-2′-fluorobiphenyl-3-yl)hexahydro-4,7-ethanoindene-1,3-dione]	0%	90%	0%	0%	90%	0%
CCc1ccc(-c2ccc(Cl)cc2)cc1C1=C(O)[C@H]2[C@H]3CC[C@H](C3)[C@H]2C1=O (racemic) [Compound T1, rac-(3aR,4R,7S,7aS)-2-(4′-chloro-4-ethylbiphenyl-3-yl)hexahydro-4,7-methanoindene-1,3-dione]	90%	100%	100%	70%	100%	100%
CCc1ccc(-c2ccc(Cl)c(F)c2)cc1C1=C(O)[C@H]2[C@H]3CC[C@H](C3)[C@H]2C1=O [Compound T35]	90%	90%	90%	80%	90%	70%
Cc1ccc(-c2ccc(Cl)cc2)cc1C1=C(O)[C@H]2[C@H]3CC[C@H](C3)[C@H]2C1=O [Compound T2]	40%	100%	60%	30%	100%	80%
